Publication PMC4414346, “Crystal Structure of Allophycocyanin from Marine Cyanobacterium Phormidium sp. A09DM” (PLoS ONE, 2015)

Target: T1, Phormidium APC (allophycocyanin) (Phormidium rubidum, UniProt A0A078K1U6+A0A078K4M9)
T1 construct: gene apcA; native purification from the cyanobacterium; no tags; alpha 18064 Da and beta 18011 Da with chromophore; trimer of alpha-beta monomers (118 kDa); N-methylasparagine in beta; GenBank entries partial (alpha 9-161, beta 1-155), corrected in structure: alpha N10K, R49C, D145N, beta E35K
Assay: X-ray crystallography, […] A
Type: binding
Conditions: covalent; one chromophore on Cys-81 of alpha and one on Cys-81 of beta; alpha-chromophore site also lined by beta residues in the trimer; crystals pH 8.5, PEG 6000

## C/C=C1/C(=C/c2[nH]c(/C=C3N=C(/C=C4\NC(=O)C(CC)=C4C)C(C)=C\3CCC(=O)O)c(CCC(=O)O)c2C)NC(=O)[C@@H]1C [phycocyanobilin]
  X-ray crystallography, 2.51 A: One PCB chromophore is covalently bonded to the conserved Cys-81 of α-subunit (α-chromophore)
